Results as given in patent US10081629B2, “Amide derivatives and pharmaceutically acceptable salts thereof, preparation method thereof and medicinal application thereof” (Shanghai Hengrui Pharmaceutical Co., Ltd., priority 2014, dated 2018).

Columns and labels:
[1] = tested on: secretion of PGE2 by A549 cells stimulated with IL-1β; experiment: Inhibition of the secretion of PGE2 by A549 cells stimulated with IL-1β; assay type: cell-based; conditions: IL-1β 0.2 ng/mL, 24 hours
Text: The method described here was used for determining the inhibition activity of the present compounds on the secretion of PGE2 by A549 cells stimulated with IL-1β.
• 1. PGE2 Assay kit (Cisbio, #62P2APEB) • 2. IL-1β (Peprotech, # AF-200-01B) • 3. Cell line: A549 (ATCC: CCL-185) • 4. FlexStation3 microplate reader. II. Experimental Procedure
On the first day, A549 cells were inoculated in a 96-well plate at 40000/well. On the second day, the culture medium in the 96-well plate was removed and then added with 90 μL of compound diluted with culture medium (the concentration of each compound at seven gradient concentrations was 11111 nM, […], 1.11 nM, 0.11 nM and 0.011 nM). The cells were incubated for 30 minutes at 37° C. in an incubator, and then added with IL-1β to a final concentration of 0.2 ng/mL. Then, the cells were incubated for another 24 hours at 37° C. On the third day, 10 μl of supernatant, 5 μL of PGE2-d2 and 5 μL of anti-PGE2 Cryptate were added into a black 384-well plate, and then incubated at 4° C. overnight. HTRF was determined using Flexstation, and the IC50 of the compounds was obtained by data processing software.
The inhibition activity of the present compounds on the secretion of PGE2 by A549 cells stimulated with IL-1β was determined by the assay described above.

human mPGES1 = human mPGES1 (Homo sapiens (Human), UniProt O14684); experiment: Inhibition activity for human mPGES1 (enzyme assay, PGE2 HTRF); assay type: biochemical; conditions: membrane protein from HEK-293 F transfected with human mPGES1
human mPGES1, sequence (O14684 whole entry): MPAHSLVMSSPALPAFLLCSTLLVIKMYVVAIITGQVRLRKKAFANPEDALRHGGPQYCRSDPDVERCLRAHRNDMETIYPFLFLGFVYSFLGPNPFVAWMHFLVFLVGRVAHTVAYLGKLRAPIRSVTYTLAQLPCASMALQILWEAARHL
Procedure: The method described here is used for determining the inhibition activity of the present compounds for human mPGES1.
• 1. PGE2 Assay kit (Cisbio, #62P2APEB) • 2. Prostaglandin H2 (Sigma, #P7867-1MG) • 3. FlexStation3 microplate reader. II. Experimental Procedure • 1. Obtaining the membrane proteins of mPGES1 enzyme
The cell density of HEK-293 F was grown to 6×10^5 per milliliter and was transferred with the plasmid containing human mPGES1 gene by transfection reagent PEI the next day. The cells were continuously cultured for 72 hours at 37° C. with shaking. After centrifuging at 1100 g for 5 minutes, the cells were harvested. After ultrasonication in an ice bath and centrifugation at 5000 g for 10 minutes, the supernatant was obtained. The supernatant was centrifuged at 100000 g for 1 hour to obtain a precipitate. The precipitate was resuspended with storage buffer containing 10% glycerinum, subpackaged and frozen rapidly under liquid nitrogen, and stored at −80° C. • 2. mPGES1 enzyme assay
mPGES1 was diluted with assay buffer and added into plate at 49 μL/well supplemented with 1 μL of compound (the final concentration of each compound at seven gradient concentrations was 10000 nM, 1000 nM, 100 nM, 10 nM, 1 nM, 0.1 nM and 0.01 nM). […] Then, each well was added with 53.8 μL of 6 mg/mL SnCl2 to quench the reaction. The sample was diluted with dilute buffer at 1:400. 10 μl of diluted sample, 5 μL PGE2-d2 and 5 μL anti-PGE2 Cryptate were added to a black 384-well plate, and incubated at 4° C. overnight. HTRF was determined using Flexstation, and the IC50 of the compounds was obtained by data processing software.
The inhibition activity of the present compounds on mPGES1 was tested by the assay described above.

[2] = Pharmacokinetics assay in rats; assay type: in vivo; conditions: both sexes, Sprague-Dawley, rat, plasma, po, SD rats, intragastric, 5 mg/kg; for Vd/F: read-out: Apparent Distribution Volume Vz/F; for AUC: read-out: Area Under Curve AUC; for MRT: read-out: Mean Residence Time MRT; for Cmax: read-out: Plasma Conc. Cmax
Procedure: Rats were used as test animals. The drug concentration in plasma at different time points was determined by LC/MS/MS after administration of the compounds of Example 8, Example 11, Example 14, Example 17, Example 20, Example 27, Example 33, Example 35, Example 36, Example 37 and Example 48 to rats. The pharmacokinetic behavior of the present compounds was studied and evaluated in rats.
Forty four (44) healthy adult Sprague-Dawley (SD) rats, half male and half female, which were purchased from SINO-BRITSH SIPPR/BK LAB. ANIMAL LTD., CO, with Certificate No.: SCXK (Shanghai) 2008-0016, were divided into 11 groups, with 4 rats in each group.
The appropriate amount of test compounds was weighed, and mixed with 25 μL Tween 80 and Labrasol to prepare a 0.6 mg/mL suspension by ultrasonication.
After an overnight fast, 44 SD rats, half male and half female, were divided into 11 groups, and administered intragastrically at a dose of 5.0 mg/kg and an administration volume of 10 mL/kg.
Blood (0.1 mL) was sampled from the orbital sinus before administration and 0.5 h, 1.0 h, 2.0 h, 4.0 h, 6.0 h, 8.0 h, 11.0 h, and 24.0 h after administration. The samples were stored in EDTA anticoagulation tubes, and centrifuged for 5 minutes at 3,500 rpm to separate the blood plasma. The plasma samples were stored at −20° C. The rats were fed 2 hours after administration.
The plasma concentration of the test compounds in rat after intragastric administration was determined by LC-MS/MS. The linearity of the method is 5.00-2000 ng/mL and 1.00-2000 ng/ml, and the minimum of quantification is 5.00 ng/mL and 1.00 ng/mL.
Plasma samples were analyzed after pretreatment by protein precipitation.

| SMILES | IC50 ([1]; Homo sapiens, A549) | IC50 (human mPGES1) | other results |
| --- | --- | --- | --- |
| Cn1c(-c2cccc(Cl)c2)cc2cc(NC(=O)c3cc(CNC(=O)C(C)(C)F)cnc3C(F)F)ccc21 [Example 33, N-(2-(3-Chlorophenyl)-1-methyl-1H-indol-5-yl)-2-(difluoromethyl)-5-(((2-fluoro-2-methyl-propanoyl)amino)methyl)nicotinamide] | 12.8 nM | 5.33 nM | Vd/F [2]: 4.82 ± 0.961 L/kg; AUC [2]: 5720 ± 1210 ng·h/mL; MRT [2]: 7.6 ± 1.09 h; Cmax [2]: 557 ± 80 ng/mL |
| CCn1c(-c2ccc(C(F)(F)F)cc2)cc2cc(NC(=O)c3cc(CNC(=O)C(C)(C)F)cnc3C(F)F)ccc21 [Example 17, 2-(Difluoromethyl)-N-(1-ethyl-2-(4-(trifluoromethyl)phenyl)-1H-indol-5-yl)-5-(((2-fluoro-2-methyl-propanoyl)amino)methyl)nicotinamide] | 12.1 nM | 2.68 nM | Vd/F [2]: 20.2 ± 2.6 L/kg; AUC [2]: 2000 ± 650 ng·h/mL; CL/F ([2]; read-out: Clearance CLz/F): 45.3 ± 15.3 mL/min/kg; half-life ([2]; read-out: Half-Life T½ (converted)): 5.44 ± 1.23 h; MRT [2]: 10.4 ± 1.9 h; Cmax [2]: 155 ± 26 ng/mL |
| CC(C)(F)C(=O)NCc1cnc(C(F)F)c(C(=O)Nc2ccc3oc(-c4ccc(C(F)(F)F)cc4)nc3c2)c1 [Example 23, 2-(Difluoromethyl)-5-(((2-fluoro-2-methyl-propanoyl)amino)methyl)-N-(2-(4-(trifluoromethyl)phenyl)benzo[d]oxazol-5-yl)nicotinamide] | 49 nM | 4.73 nM |  |
| CC(C)C(=O)NCc1cnc(C(F)F)c(C(=O)Nc2ccc3c(c2)CN(c2ccc(C(F)(F)F)cc2)C3)c1 [Example 40, 2-(Difluoromethyl)-5-((2-methylpropanoylamino)methyl)-N-(2-(4-(trifluoromethyl)phenyl)isoindolin-5-yl)nicotinamide] | 16.9 nM | 22.4 nM |  |
| Cn1c(-c2ccc(Cl)cc2)cc2cc(NC(=O)c3cc(CNC(=O)C(C)(C)F)cnc3C(F)F)ccc21 [Example 18, N-(2-(4-Chlorophenyl)-1-methyl-1H-indol-5-yl)-2-(difluoromethyl)-5-(((2-fluoro-2-methyl-propanoyl)amino)methyl)nicotinamide] |  | 5.15 nM | IC50 [1]: 17.2 nM |
| CC(C)(F)C(=O)NCc1cnc(C(F)F)c(C(=O)Nc2ccc3c(c2)cc(-c2ccc(Cl)cc2)n3[C@H]2CCOC2)c1 [Example 46, (S)-N-(2-(4-Chlorophenyl)-1-(tetrahydrofuran-3-yl)-1H-indol-5-yl)-2-(difluoromethyl)-5-(((2-fluoro-2-methyl-propanoyl)amino)methyl)nicotinamide] | 24.7 nM | 2.71 nM |  |
| CC(C)C(=O)NCc1cnc(C(F)F)c(C(=O)Nc2ccc3nn(-c4ccc(C(F)(F)F)cc4)cc3c2)c1 [Example 24, 2-(Difluoromethyl)-5-((2-methylpropanoylamino)methyl)-N-(2-(4-(trifluoromethyl)phenyl)-2H-indazol-5-yl)nicotinamide] | 45.6 nM | 17.2 nM |  |
| CC(C)(F)C(=O)NCc1cnc(C(F)F)c(C(=O)Nc2ccc3oc(-c4cccc(C(F)(F)F)c4)nc3c2)c1 [Example 56, 2-(Difluoromethyl)-5-(((2-fluoro-2-methyl-propanoyl)amino)methyl)-N-(2-(3-(trifluoromethyl)phenyl)benzo[d]oxazol-5-yl)nicotinamide] | 27.5 nM | 7.74 nM |  |
| CC(C)C(=O)NCc1cnc(C(F)F)c(C(=O)Nc2ccc3oc(-c4ccc(C(F)(F)F)cc4)nc3c2)c1 [Example 38, 2-(Difluoromethyl)-5-((2-methylpropanoylamino)methyl)-N-(2-(4-(trifluoromethyl)phenyl)benzo[d]oxazol-5-yl)nicotinamide] | 42.9 nM | 5.43 nM |  |
| CC(C)(F)C(=O)NCc1cnc(C(F)F)c(C(=O)Nc2ccc3c(c2)C(=O)N(c2cccc(C(F)(F)F)c2)C3)c1 [Example 59, 2-(Difluoromethyl)-5-(((2-fluoro-2-methyl-propanoyl)amino)methyl)-N-(3-oxo-2-(3-(trifluoromethyl)phenyl)isoindolin-5-yl)nicotinamide] | 20.5 nM | 1.18 nM |  |
| CC(C)C(=O)NCc1cnc(C(F)F)c(C(=O)Nc2ccc3nc(-c4ccc(C(F)(F)F)cc4)sc3c2)c1 [Example 54, 2-(Difluoromethyl)-5-((2-methylpropanoylamino)methyl)-N-(2-(4-(trifluoromethyl)phenyl)benzo[d]thiazol-6-yl)nicotinamide] | 58.5 nM | 47.1 nM |  |
| CC(C)(F)C(=O)NCc1cnc(C(F)F)c(C(=O)Nc2ccc3c(c2)cc(-c2ccc(Cl)cc2)n3[C@@H]2CCOC2)c1 [Example 47, (R)-N-(2-(4-Chlorophenyl)-1-(tetrahydrofuran-3-yl)-1H-indol-5-yl)-2-(difluoromethyl)-5-(((2-fluoro-2-methyl-propanoyl)amino)methyl)nicotinamide] | 18.9 nM | 5.72 nM |  |
| CC(C)C(=O)NCc1cnc(C(F)F)c(C(=O)Nc2ccc3oc(-c4ccc(C(F)(F)F)cc4)cc3c2)c1 [Example 39, 2-(Difluoromethyl)-5-((2-methylpropanoylamino)methyl)-N-(2-(4-(trifluoromethyl)phenyl)benzofuran-5-yl)nicotinamide] | 30.5 nM | 3.68 nM |  |
| CC(C)(C)C(=O)NCc1ccc(Cl)c(C(=O)Nc2ccc3oc(-c4ccc(C(F)(F)F)cc4)nc3c2)c1 [Example 22, 2-Chloro-5-((2,2-dimethylpropanoylamino)methyl)-N-(2-(4-(trifluoromethyl)phenyl)benzo[d]oxazol-5-yl)benzamide] | 38.8 nM | 6.69 nM |  |
| CCn1c(-c2ccc(F)cc2)cc2cc(NC(=O)c3cc(CNC(=O)C(C)C)cnc3C(F)F)ccc21 [Example 5, 2-(Difluoromethyl)-N-(1-ethyl-2-(4-fluorophenyl)-1H-indol-5-yl)-5-((2-methylpropanoylamino)methyl)nicotinamide] | 12.4 nM | 22 nM |  |
